How the values were obtained:
[1] = biological target: Epidermal growth factor receptor (Homo sapiens, UniProt P00533); assay: Inhibition of EGFR phosphorylation at Y 1173 residues in human HeLa cells preincubated for 30 mins followed by EGF-stimulation and measured after 2 mins by ELISA; format: cell-based
SOS1-KRAS [2] = biological target: T1, SOS1-KRAS (Homo sapiens, UniProt P01116+Q07889, G12C); assay: Inhibition of human N-terminal GST-tagged K-RasG12C mutant/human N-terminal His-tagged SOS1 preincubated for 2 mis followed by SOS1 addition and measured after 20 mins in presence of GDP-Dy647P1 by HTRF assay
T1 sequence (P01116 whole entry G12C, stated change not applied): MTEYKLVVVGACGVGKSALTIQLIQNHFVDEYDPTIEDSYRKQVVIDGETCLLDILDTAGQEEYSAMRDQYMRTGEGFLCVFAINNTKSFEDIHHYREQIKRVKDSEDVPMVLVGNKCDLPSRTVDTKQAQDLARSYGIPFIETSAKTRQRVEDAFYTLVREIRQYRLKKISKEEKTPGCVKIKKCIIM
T1 sequence (Q07889 whole entry, stated change not applied): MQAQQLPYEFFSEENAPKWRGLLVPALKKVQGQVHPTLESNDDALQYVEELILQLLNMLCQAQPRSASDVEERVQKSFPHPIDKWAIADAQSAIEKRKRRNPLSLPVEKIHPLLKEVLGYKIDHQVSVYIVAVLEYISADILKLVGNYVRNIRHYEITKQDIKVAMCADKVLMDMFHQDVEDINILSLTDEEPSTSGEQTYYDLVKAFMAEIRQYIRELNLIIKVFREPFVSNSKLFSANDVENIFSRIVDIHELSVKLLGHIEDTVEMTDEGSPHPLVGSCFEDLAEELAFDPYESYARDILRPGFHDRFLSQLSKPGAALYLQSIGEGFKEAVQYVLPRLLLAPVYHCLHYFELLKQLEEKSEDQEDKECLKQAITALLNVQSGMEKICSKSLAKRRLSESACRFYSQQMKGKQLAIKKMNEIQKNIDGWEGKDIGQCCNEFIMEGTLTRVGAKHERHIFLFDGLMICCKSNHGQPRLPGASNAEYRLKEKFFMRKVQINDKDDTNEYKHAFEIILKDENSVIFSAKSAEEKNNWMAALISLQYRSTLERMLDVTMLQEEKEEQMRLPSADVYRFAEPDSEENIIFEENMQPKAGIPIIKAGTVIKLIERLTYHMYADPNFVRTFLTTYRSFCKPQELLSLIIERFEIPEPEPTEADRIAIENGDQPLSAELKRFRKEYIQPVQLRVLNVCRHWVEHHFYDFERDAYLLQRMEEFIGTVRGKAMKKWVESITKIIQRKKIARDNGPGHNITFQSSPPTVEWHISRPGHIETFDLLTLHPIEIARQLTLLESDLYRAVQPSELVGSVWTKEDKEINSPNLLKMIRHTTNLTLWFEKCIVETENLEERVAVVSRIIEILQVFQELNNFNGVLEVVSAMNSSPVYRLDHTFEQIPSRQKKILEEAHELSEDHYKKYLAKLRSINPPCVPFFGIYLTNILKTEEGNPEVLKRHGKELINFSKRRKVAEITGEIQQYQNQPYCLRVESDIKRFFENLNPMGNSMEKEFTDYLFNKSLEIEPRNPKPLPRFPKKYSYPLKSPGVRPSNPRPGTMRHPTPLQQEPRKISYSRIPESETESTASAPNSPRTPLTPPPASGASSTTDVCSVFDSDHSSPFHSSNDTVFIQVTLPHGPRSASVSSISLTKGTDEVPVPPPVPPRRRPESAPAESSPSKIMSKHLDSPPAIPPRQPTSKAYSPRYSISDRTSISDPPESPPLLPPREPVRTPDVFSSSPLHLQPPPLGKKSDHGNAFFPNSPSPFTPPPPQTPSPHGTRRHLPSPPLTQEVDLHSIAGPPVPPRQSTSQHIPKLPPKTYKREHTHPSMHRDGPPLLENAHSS

SOS1-KRAS [3] = biological target: T1, SOS1-KRAS; assay: Inhibition of human N-terminal GST-tagged K-RasG12C mutant/human N-terminal His-tagged SOS1 preincubated for 2 mis followed by SOS1 addition and measured after 60 mins by HTRF assay
SOS1-KRAS [4] = biological target: T1, SOS1-KRAS; assay: Inhibition of human N-terminal GST-tagged K-RasG12C mutant/human N-terminal His-tagged SOS1 preincubated for 2 mis followed by SOS1 addition and measured after 10 mins in presence of EDA-GTP-Dy647P1 by HTRF assay

Sequence of Epidermal growth factor receptor (P00533 whole entry): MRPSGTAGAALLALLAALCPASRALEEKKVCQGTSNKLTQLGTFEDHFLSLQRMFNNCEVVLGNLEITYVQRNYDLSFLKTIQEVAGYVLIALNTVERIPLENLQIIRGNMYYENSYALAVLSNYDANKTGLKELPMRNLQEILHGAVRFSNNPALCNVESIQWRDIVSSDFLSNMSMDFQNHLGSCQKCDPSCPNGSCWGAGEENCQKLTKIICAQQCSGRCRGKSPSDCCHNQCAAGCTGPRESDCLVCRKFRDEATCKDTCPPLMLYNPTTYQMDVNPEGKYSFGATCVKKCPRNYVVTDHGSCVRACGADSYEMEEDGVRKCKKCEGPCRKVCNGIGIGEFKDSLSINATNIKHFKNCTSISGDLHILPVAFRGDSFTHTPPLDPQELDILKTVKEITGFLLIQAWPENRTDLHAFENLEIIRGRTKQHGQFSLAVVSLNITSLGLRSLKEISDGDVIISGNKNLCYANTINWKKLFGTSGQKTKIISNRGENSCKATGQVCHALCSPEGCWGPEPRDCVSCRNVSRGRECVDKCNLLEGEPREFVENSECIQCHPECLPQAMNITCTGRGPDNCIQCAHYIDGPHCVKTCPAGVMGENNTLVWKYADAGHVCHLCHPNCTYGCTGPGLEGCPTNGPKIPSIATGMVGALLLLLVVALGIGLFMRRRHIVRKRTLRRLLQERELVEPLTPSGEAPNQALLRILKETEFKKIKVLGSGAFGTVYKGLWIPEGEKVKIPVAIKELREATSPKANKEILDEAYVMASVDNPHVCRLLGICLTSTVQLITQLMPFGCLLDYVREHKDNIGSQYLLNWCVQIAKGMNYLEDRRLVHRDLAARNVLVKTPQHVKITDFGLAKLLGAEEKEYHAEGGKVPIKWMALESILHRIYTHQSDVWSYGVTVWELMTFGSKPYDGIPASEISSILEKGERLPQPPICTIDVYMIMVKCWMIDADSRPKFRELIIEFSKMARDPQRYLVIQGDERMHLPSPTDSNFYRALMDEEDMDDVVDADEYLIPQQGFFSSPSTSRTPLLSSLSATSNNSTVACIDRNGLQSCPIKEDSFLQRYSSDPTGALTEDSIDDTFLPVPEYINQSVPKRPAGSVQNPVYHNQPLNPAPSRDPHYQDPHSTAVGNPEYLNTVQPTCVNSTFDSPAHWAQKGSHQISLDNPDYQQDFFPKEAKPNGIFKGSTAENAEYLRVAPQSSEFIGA

Compound	IC50 [1] [µM]	further results
CSc1cc2c(N[C@H](C)c3ccc(F)cc3)nc(C)nc2cn1	> 20	–
CNCc1ccccc1-c1ccc(C(C)Nc2nc(C)nc3cnc(OCC4CCNC(=O)C4)cc23)s1 (centres undefined)	> 20	–
COCCOc1cc2c(N[C@H](C)c3ccc(F)cc3)nc(C)nc2cn1	> 20	–
CCOc1cc2c(N[C@H](C)c3ccc(F)cc3)nc(C)nc2cn1	> 20	–
CCCOc1cc2c(NC(C)c3ccc(-c4ccccc4CN(C)C)s3)nc(C)nc2cn1 (centres undefined)	> 20	IC50 (SOS1-KRAS [2]): 0.038 µM
Cc1nc(NC(C)c2ccc(-c3ccccc3CN(C)C)s2)c2cc(N3CCNC(=O)C3)ncc2n1 (centres undefined)	> 20	IC50 (SOS1-KRAS [2]): 0.048 µM; IC50 (SOS1-KRAS [4]): 0.054 µM
CC(=O)N[C@H]1CCN(c2cc3c(NC(C)c4ccc(-c5ccccc5CN(C)C)s4)nc(C)nc3cn2)C1 (stereo in doubt; 61)	> 20	–
CC(=O)N[C@@H]1CCN(c2cc3c(NC(C)c4ccc(-c5ccccc5CN(C)C)s4)nc(C)nc3cn2)C1 (stereo in doubt; 79)	–	IC50 ([1]; hela): > 20 µM
CC(=O)N[C@@H]1CCN(c2cc3c(NC(C)c4ccc(-c5ccccc5CN(C)C)s4)nc(C)nc3cn2)C1 (stereo in doubt; 80)	–	IC50 ([1]; hela): > 20 µM
CC(=O)N[C@H]1CCN(c2cc3c(NC(C)c4ccc(-c5ccccc5CN(C)C)s4)nc(C)nc3cn2)C1 (stereo in doubt; 81)	–	IC50 ([1]; hela): > 20 µM
CC(=O)N[C@H]1CCN(c2cc3c(NC(C)c4ccc(-c5ccccc5CN(C)C)s4)nc(C)nc3cn2)C1 (stereo in doubt; 82)	–	IC50 ([1]; hela): > 20 µM

Further lines, with some results ahead:

IC50 [1] [µM]	Compound	further results
> 20	Cc1nc(NC(C)c2ccc(-c3ccccc3CN(C)C)s2)c2cc(OCCN(C)C)ncc2n1 (centres undefined)	IC50 (SOS1-KRAS [2]): 0.027 µM; IC50 (SOS1-KRAS [3]): 0.03 µM
> 20	Cc1nc(NC(C)c2ccc(-c3ccccc3CN(C)C)s2)c2cc(N3CCN(Cc4cccnc4)CC3)ncc2n1 (centres undefined)	IC50 (SOS1-KRAS [2]): 0.085 µM
> 20	COc1cc2c(N[C@H](C)c3ccc(F)cc3)nc(C)nc2cn1	–
> 20	Cc1nc(NC(C)c2ccc(-c3ccccc3CN(C)C)s2)c2cc(N3CC(NC(=O)CN4CCOCC4)C3)ncc2n1 (centres undefined)	–
> 20	CCOc1cc2c(N[C@H](C)c3ccccc3)nc(C)nc2cn1	–
> 20	CC(=O)NC1CCN(c2cc3c(NC(C)c4ccc(-c5ccccc5CN(C)C)s4)nc(C)nc3cn2)C1 (racemic)	–
> 20	CC(=O)N[C@@H]1CCN(c2cc3c(NC(C)c4ccc(-c5ccccc5CN(C)C)s4)nc(C)nc3cn2)C1 (stereo in doubt; 60)	–

— ChEMBL document CHEMBL4334534, “Novel Methyl-aza-quinazolines as Inhibitors of the RAS-SOS Interaction” (ACS Med Chem Lett, 2020)
